# Data taken from patent publication US11161830B2, “4-pyridone compound or salt thereof, and pharmaceutical composition and formulation including same” (priority 2017, dated 2021).
# Read-outs that look alike come from different tables or passages of the source.
# Columns and labels:
# [1] = system: HBV (genotype CAT); assay: Test Example 2-2: anti-HBV assay in PXB-cells (fresh human hepatocytes); assay type: cell-based; settings: Hepatitis B virus, Hepatocyte
# Protocol: Using fresh human hepatocytes (PXB-cells, manufactured by PhenixBio Co., Ltd.) collected from a PXB mouse (a chimeric mouse with human hepatocytes), the anti-HBV activity of the representative compounds was evaluated in the following procedure.
# (§1) The following was used as a medium:
# DMEM (manufactured by Sigma)+0.25 μg/mL insulin (manufactured by Wako)+1% penicillin/streptomycin. (manufactured by Sigma)+20 mmol/L HEPES (manufactured by Sigma)+15 μg/mL L-proline (manufactured by Sigma)+50 nmol/L dexamethasone (manufactured by Sigma)+5 ng/mL EGF (manufactured by Peprotech)+0.1 mmol/L ascorbic acid 2-phosphate (manufactured by Wako)+10% FBS+2% DMSO
# Each of the test compounds) was further added to the medium to prepare a test solution containing each of the test compounds at various concentrations.
# (1) PXB-cells seeded at a seeding density of 2.1×10^5 cells/cm^2 in a 96-well microliter plate were incubated in a 5% CO2 incubator at 37° C. until a day on which the cells were infected.
# (2) A HBV (genotype CAT) prepared by transfecting an HBV plasmid into an HepG2 cell was suspended in the medium containing 4% PEG-8000, and added to the plate of (1) at about 30 copies/cell such that the PXB cells were infected (100 μL/well), and the plate was incubated in a 5% CO2 incubator at 37° C. for 1 day.
# (3) The culture supernatant on day 1 post infection was removed and the cells were washed three times with DMEM containing 10% FBS and 1% penicillin/streptomycin. Then, the medium was added to the plate (100 μL/well) and the plate was incubated in a 5% CO2 incubator at 37° C. for 1 day.
# (4) The culture supernatant on day 2 post infection was removed and the cells were washed three times with DMEM containing 10% FBS and 1% penicillin/streptomycin. Then, the medium was added to the plate (100 μL/well) and the plate was incubated in a 5% CO2 incubator at 37° C. for 5 days.
# (5) The culture supernatant on day 7 post infection was removed, the medium was added to the plate (100 μL/well), and the plate was incubated in a 5% CO2 incubator at 37° C. for 5 days.
# (6) The culture supernatant on day 12 post infection was removed, the medium was added to the plate (100 μL/well), and the plate was incubated in a 5% CO2 incubator at 37° C. for 5 days.
# (§2) (7) The culture supernatant on day 17 post infection was removed, the test solution was added to the plate (100 μL/well), and the plate was incubated in a 5% CO2 incubator at 37° C. for 5 days. As a control without the compound added, the medium was added to the plate (100 μL/well) and the plate was incubated in a 5% CO2 incubator at 37° C. for 5 days.
# as §2, with “(8)” for “(7)”, “22” for “17”
# as §2, with “(9)” for “(7)”, “27” for “17”
# (10) The culture supernatant on day 32 post infection was collected.
# (11) The collected culture supernatant on day 32 post infection was treated with a mixture of Buffer AL (manufactured by QIAGEN) and Proteinase K (manufactured by Invitrogen). The amount of HBV-DNA in the obtained solution was absolutely quantified by a real-time PCR method. In addition, the amount of HBsAg in the culture supernatant was absolutely quantified by chemiluminescent enzyme immunoassay using Lumipulse (registered trademark) HBsAg-HQ (manufactured by Fujirebio Inc.). A relative viral load (%) with respect to a control without the compound added was each calculated. […]
# [2] = system: HBV; assay: Test Example 1-2: anti-HBV assay in HepG2.2.15 cells (test solution 100 μL/well); assay type: cell-based, hepatitis B virus; settings: culture supernatant
# Protocol: Using HepG2.2.15 cells (Proc. Natl. Acad. Sci. USA, 84, 1005-1009, 1987) which have an HBV genome introduced into a hepatoblastoma cell line, HepG2, and persistently produce a virus, the anti-HBV activity of the representative compounds was evaluated in the following procedure.
# as §1
# DMEM/F-12, GlutaMAX (manufactured by Invitrogen)+5 μg/mL insulin (manufactured by Wako)+1% penicillin/streptomycin (manufactured by Sigma)+10 mmol/L HEPES (manufactured by Sigma)+50 μmol/L hydrocortisone (manufactured by Sigma)+10% FBS
# A mixture of a test compound with dimethyl sulfoxide (DMSO) was further added to the medium to obtain a final concentration of DMSO of 0.25% (v/v), and thus, test solutions containing the test compound at various concentrations were prepared. In addition, a test solution obtained by adding DMSO alone to the medium to obtain a final concentration of 0.25% (v/v) was prepared as a control without addition of a drug.
# (1) The HepG2.2.15 cells were suspended in the medium to prepare a. HepG2.2.15 cell suspension at 4×10^5 cells/mL. The suspension was seeded in a 96-well microtiter plate (100 μL/well) and the plate was incubated in a 5% CO2 incubator at 37° C. for 2 days.
# (2) The culture supernatant was removed and the cells were washed twice with PBS (−) (100 μL/well).
# (3) The test solution (200 μL/well) was added to the plate of (2) and the plate was incubated in a 5% CO2 incubator at 37° C. for 4 days.
# (4) The culture supernatant was removed, the test solution (200 μL/well) was added again to the plate, and the plate was incubated in a 5% CO2 incubator at 37° C. for 3 days.
# (5) The culture supernatant was collected and treated with a mixture of Buffer AL (manufactured by QIAGEN) and Proteinase K (manufactured by Invitrogen). The amount of DNA of HBV (HBV-DNA) in the obtained solution was absolutely quantified by a real-time PCR method. In addition, HBsAg (hepatitis B surface antigen) in the culture supernatant was absolutely quantified by chemiluminescent enzyme immunoassay using Lumipulse (registered trademark) HBsAg-HQ (manufactured by Fujirebio Inc.). The relative viral load (%) of a well with the compound added to a well without the compound added was calculated. An IC50 of the compound was calculated using a FORECAST function (linear regression method) of Microsoft Office Excel 2007 by plotting the logarithm of the concentration against the relative viral load as a real number.
# The IC50 of HBV-DNA was defined as a concentration (or a logarithm dilution of the culture supernatant) of the compound, in which the amount of HBV-DNA is reduced by 50% as compared a control without the compound added.
# In addition, the IC50 of HBsAg was defined as a concentration (or a logarithm dilution of the culture supernatant) of the compound, in which the amount of HBsAg is reduced by 50% as compared a control without the compound added.
# The test was performed by the same method as in Test Example 1-1 except that the amounts of the test solutions of (3) and (4) of Test Example 1-1 was changed to 100 μL/well.
# [3] = read-out: IC50 HBV-DNA, PXB-cells infected with HBV genotype CAT, culture supernatant on day 32 post infection
# [4] = read-out: IC50 HBsAg, PXB-cells infected with HBV genotype CAT, culture supernatant on day 32 post infection
Structure (SMILES),"IC50 [1, 3]","IC50 [1, 4]",also measured
"CN(C)[C@H]1CCN(c2nc3ccc(-n4cc(C(=O)O)c(=O)cc4-c4ccc(N5CCCC5)cc4)cc3s2)C1 [Example 17-1, (S)-1-(2-(3-(dimethylamino)pyrrolidin-1-yl)benzo[d]thiazol-6-yl)-4-oxo-6-(4-(pyrrolidin-1-yl)phenyl)-1,4-dihydropyridine-3-carboxylic acid]",< 500 nM,< 500 nM,–
"CN(C)[C@@H]1CCN(c2nc3ccc(-n4cc(C(=O)O)c(=O)cc4-c4ccc(N5CCCC5)cc4)cc3s2)C1 [Example 17-2, (R)-1-(2-(3-(dimethylamino)pyrrolidin-1-yl)benzo[d]thiazol-6-yl)-4-oxo-6-(4-(pyrrolidin-1-yl)phenyl)-1,4-dihydropyridine-3-carboxylic acid]",< 500 nM,< 500 nM,–
"CO[C@H]1CCN(c2nc3ccc(-n4cc(C(=O)O)c(=O)cc4-c4ccc(N5CCCC5)cc4)cc3s2)C1 [Example 17-3, (S)-1-(2-(3-methoxypyrrolidin-1-yl)benzo[d]thiazol-6-yl)-4-oxo-6-(4-(pyrrolidin-1-yl)phenyl)-1,4-dihydropyridine-3-carboxylic acid]",< 500 nM,< 500 nM,–
"COC1CN(c2nc3ccc(-n4cc(C(=O)O)c(=O)cc4-c4ccc5c(c4)OC[C@@H]4CCCN54)cc3s2)C1 [Example 18-2, (S)-1-(2-(3-methoxyazetidin-1-yl)benzo[d]thiazol-6-yl)-4-oxo-6-(2,3,3a,4-tetrahydro-1H-benzo[b]pyrrolo[1,2-d][1,4]oxazin-7-yl)-1,4-dihydropyridine-3-carboxylic acid]",< 500 nM,< 500 nM,–
"COCCO[C@@H]1CCN(c2ccc(-c3cc(=O)c(C(=O)O)cn3-c3ccc4nc(N5CCOCC5)sc4c3)cc2)C1 [Example 19-1, (R)-6-(4-(3-(2-methoxyethoxy)pyrrolidin-1-yl)phenyl)-1-(2-morpholinobenzo[d]thiazol-6-yl)-4-oxo-1,4-dihydropyridine-3-carboxylic acid]",< 500 nM,< 500 nM,–
"CO[C@@H]1CCN(c2ccc(-c3cc(=O)c(C(=O)O)cn3-c3ccc4nc(N5CCOCC5)sc4c3)cc2F)C1 [Example 20-1, (R)-6-(3-fluoro-4-(3-methoxypyrrolidin-1-yl)phenyl)-1-(2-morpholinobenzo[d]thiazol-6-yl)-4-oxo-1,4-dihydropyridine-3-carboxylic acid]",< 500 nM,< 500 nM,–
"CO[C@@H]1CCN(c2ccc(-c3cc(=O)c(C(=O)O)cn3-c3ccc4nc(N5CC(C)(OC)C5)sc4c3)cc2F)C1 [Example 23-8, (R)-6-(3-fluoro-4-(3-methoxypyrrolidin-1-yl)phenyl)-1-(2-(3-methoxy-3-methylazetidin-1-yl)benzo[d]thiazol-6-yl)-4-oxo-1,4-dihydropyridine-3-carboxylic acid]",–,–,"IC50 ([2]; Hepatitis B virus, read-out: IC50 HBV-DNA): 0.89 nM; IC50 ([2]; Hepatitis B virus, read-out: IC50 HBsAg): 1.4 nM"
COCCOC1CN(c2nc3ccc(-n4cc(C(=O)O)c(=O)cc4-c4ccc(N5CC[C@@H](OC)C5)c(F)c4)cc3s2)C1 [Example 23-9],–,–,IC50 ([2]; read-out: IC50 HBV-DNA): 0.68 nM; IC50 ([2]; read-out: IC50 HBsAg): 1.8 nM
